According to patent US20050208058A1, “Compositions and methods for modulating cell division” (priority 2003, published 2005):
d = 2'-deoxy (DNA)

Columns and labels:
Format in all cases: cell-based, human
RPE1 cells = experiment: FACS of nocodazole shift with kinase inhibitors and siGCP3 (p38 dependence); details: FIG. 7
Description: (§1) For flow cytometry (i.e., fluorescence-activated cell sorter or FACS) experiments, siRNAs were delivered to cells as described above, and were incubated for 50-70 hours. To synchronize cells, nocodazole was added to the cells to a concentration of 5 μg/mL for 12 hours. Cells were stained with propidium iodide and analyzed by flow cytometry (FACSCAN; Becton Dickinson) using FLOJO® software (Tree Star, Inc., Ashland, Oreg.).
The following experiment was performed to test if p38, an upstream component of p53 signaling, is required for the centrosomal cell cycle arrest phenotype described herein. The following inhibitors were added to RPE1 cells 1 hour prior to siRNA treatment at the indicated concentrations: SB203580 (p38 inhibitor) 40 μM, SB202190 (p38 inhibitor) 10 μM, and PD98059 (MAPK inhibitor) 50 μM. All inhibitors were obtained from Calbiochem and dissolved in DMSO. siRNA treatment and FACS analysis was performed as described in Example 2.

RPE cells [1] = experiment: Flow cytometry (FACS) of nocodazole-induced shift from G1 to G2/M peak after siRNA treatment; details: siRNA 50-70 hours, nocodazole 5 μg/mL 12 hours; FIG. 3A, FIG. 8
Description: as §1
In another approach to evaluating the effect requirement for centrosomal gene products, fluorescence assisted cell sorting (flow cytometry or FACS) analysis was performed as described in Gromley et al., J. Cell Biol., 161:535-545 (2003). Briefly, cells were treated with indicated siRNA for at least 50-70 hours, unless otherwise indicated. Cells were synchronized by adding nocodazole to 5 μg/mL for 12 hours prior to cell collection. Cells were collected, fixed in methanol, stained with propidium iodide, and analyzed by flow cytometry (FACSCAN®;Becton Dickinson) using FLOJO® software (Tree Star, Inc.).
FIG. 3A is a graph showing the effects of depleting the indicated centrosomal gene products by siRNA treatment. The left side of the graph depicts the FACS results for treated cells before the addition of nocodazole (-noc). The major fluorescence peak in (-noc) cells is the G1 peak, (i.e., lower DNA fluorescence). The right side of the graph depicts the results for cells after nocodazole treatment (+noc). […] This may be due to inefficient silencing caused by the siRNAs used.
The ability of a number of centrosomal genes to inhibit cell cycling of RPE1 cells was tested by treating cells with siRNAs and performing FACS analysis as described in Example 2.

RPE cells [2] = experiment: BrDU incorporation after siRNA treatment and nocodazole synchronization; details: relative to control cells (siRNA to lamin), after nocodazole release; FIG. 2A
Description: To further study the effects of silencing centrosomal genes, the following cell cycle experiments were performed using RPE cells. In immunofluorescence experiments, cells were delivered by OLIGOFECTAMINE in a media solution containing between 1-100 nanomolar concentration of siRNAs. After 4 hours of incubation with lipofectamine, cells were washed, and cell cycle progression was assayed by (i) treating cells with 5-Bromo-2′-deoxyuridine (BrDU from Sigma, St Louis, Mo.) for 24 hours and staining for BrDU or (ii) staining cells with antibody to Ki-67 (BD Biosciences) according to manufacturer's instructions. BrDU treatment and staining were performed as follows: after 50-70 hours incubation with siRNA, BrDU was added to cells at a final concentration of 5 μg/ml. Cells were fixed in −20° C. methanol and then treated with 2N HCL at 22° C. for 30 minutes, incubated with 1:500 mouse anti-BrdU antibody (Becton Dickinson, Palo Alto, Calif.), and labeled with 1:1,000 goat FITC-mouse antibody (Molecular Probes, Inc.). Cells were also treated with 4′,6-diamidino-2-phenylindole (DAPI) (Molecular Probes) according to the manufacturer's instructions. Cells were prepared, imaged, and the resulting images were deconvolved as described in Example 1.
Upon release from nocodazole treatment, proliferating cells typically resume cell cycle progression. Chromosomal DNA in the cells was imaged using DAPI (faint ghost-like staining) and/or BrDU (brighter staining). Although DAPI can be used to visualize DNA at any stage of the cell cycle, BrDU is only incorporated into newly synthesized DNA only during S-phase. Thus, BrDU incorporation can be used as a marker of cells that progress through at least one S-phase of the cell cycle. Control cells in this experiment were treated with siRNA to lamin.

RPE cells [3] = experiment: CFDA-SE labeling cell division assay; details: during the 72 hours following siRNA treatment; FIG. 4
Source text: RPE cells were transfected with siRNA directed to pericentrin A/B or lamin (control) as described in Example 2. Immediately prior to siRNA transfection cells were labeled with a succinimidyl ester of carboxyfluorescein diacetate (CFDA-SE from Molecular Probes, Eugene, Oreg.) according to manufacturers instructions. CFDA-SE is a fluorescent marker that spontaneously and irreversibly couples to free amines on intracellular and cell-surface proteins. When a cells divides, CFDA-SE labeling is inherited equally by daughter cells, which are therefore half as fluorescent as the parent cell. Cells were prepared for and analyzed by fluorescence microscopy as described in Example 1.

cdc14A = experiment: Anti-cdc14A immunofluorescence intensity in siRNA-treated cells; details: 25 cells; FIG. 1C
Description: To test the ability of siRNAs to silence centrosomal gene products, cells were treated with siRNAs for 24 hours. Cells were diploid, telomerase-immortalized human retinal pigment epithelial (RPE1) cells (hTERT-RPE1s from Clontech, Palo Alto, Calif.) (see Morales et al., Nat Genet, 21:115-118, 1999). siRNAs directed to δ-tubulin (SEQ ID NO:2), γ-tubulin (SEQ ID NO:4), GCP2 (SEQ ID NO:5), GCP3(SEQ ID NO:6), cNAP1 (SEQ ID NO:8), PCM1 (SEQ ID NO:9), ninein (SEQ ID NO:21), NEK2a (SEQ ID NO:10), centrin2 (SEQ ID NO:12), CDC14A (SEQ ID NO:13), gapcena (SEQ ID NO:15), nemo (SEQ ID NO:16), pericentrin (SEQ ID NO:23), lamin A/C (CUGGACUUCCAGAAGAACA, SEQ ID NO: 24) zyxin (UGUGGCUGUCAACGAACUC, SEQ ID NO:25), and p53 (GGACAAGGGUUGGGCUGGG, SEQ ID NO:26) were made as complementary single stranded 19-mer siRNAs with 3′ dTdT overhangs (Dharmacon Inc., Lafayette, Colo.), deprotected, annealed and delivered into cells using OLIGOFECTAMINE® from Invitrogen (Carlsbad, Calif.). Nucleotides were delivered in media containing up to 100 nanomolar concentrations of siRNAs. […]
FIG. 1C is a histogram quantifying anti-cdc14A immunofluorescence observed in 25 cells treated with (i) siRNA to CDC14 (siCDC14) or (ii) control siLamin.

δ-tubulin = experiment: Immunofluorescence of centrosomal δ-tubulin after siRNA treatment; details: vs lamin control; FIG. 1D
Description: To test the ability of siRNAs to silence centrosomal gene products, cells were treated with siRNAs for 24 hours. Cells were diploid, telomerase-immortalized human retinal pigment epithelial (RPE1) cells (hTERT-RPE1s from Clontech, Palo Alto, Calif.) (see Morales et al., Nat Genet, 21:115-118, 1999). siRNAs directed to δ-tubulin (SEQ ID NO:2), γ-tubulin (SEQ ID NO:4), GCP2 (SEQ ID NO:5), GCP3(SEQ ID NO:6), cNAP1 (SEQ ID NO:8), PCM1 (SEQ ID NO:9), ninein (SEQ ID NO:21), NEK2a (SEQ ID NO:10), centrin2 (SEQ ID NO:12), CDC14A (SEQ ID NO:13), gapcena (SEQ ID NO:15), nemo (SEQ ID NO:16), pericentrin (SEQ ID NO:23), lamin A/C (CUGGACUUCCAGAAGAACA, SEQ ID NO: 24) zyxin (UGUGGCUGUCAACGAACUC, SEQ ID NO:25), and p53 (GGACAAGGGUUGGGCUGGG, SEQ ID NO:26) were made as complementary single stranded 19-mer siRNAs with 3′ dTdT overhangs (Dharmacon Inc., Lafayette, Colo.), deprotected, annealed and delivered into cells using OLIGOFECTAMINE® from Invitrogen (Carlsbad, Calif.). Nucleotides were delivered in media containing up to 100 nanomolar concentrations of siRNAs.
Commercial antibodies to the following proteins were used in this study: lamin A/C (Cell Signaling Technology, Beverly, Mass.), δ-, ε-, or γ-tubulin (Sigma-Aldrich, St. Louis, Mo.), zyxin (Santa Cruz Biotechnology, Santa Cruz, Calif.), Nek2A (Zymed, South San Francisco, Calif.), p53 (Calbiochem, San Diego, Calif.). […]

COc1cccc(-c2cc(=O)c3ccccc3o2)c1N [map kinase inhibitor, PD98059]
effect of inhibitor alone on nocodazole-induced shift from G1 to G2/M peak (RPE1 cells; SB203580 40 μM, SB202190 10 μM, PD98059 50 μM): did not inhibit the nocodazole-induced shift
effect of inhibitor on siGCP3-induced cell cycle arrest (RPE1 cells; inhibitor added 1 hour prior to siGCP3, SB203580 40 μM, SB202190 10 μM, PD98059 50 μM): did not affect siGCP3's ability to cause cell cycle arrest

AAGAGAAGCAGAUGCUGCA (siRNA; RNA, 3' dTdT, backbone not given here) [siGCP3, siRNA directed to GCP3]
inhibition of nocodazole-induced shift from G1 peak to G2/M peak (RPE cells [1]): prevented nocodazole-induced shift
effect of siRNA on nocodazole-induced shift from G1 to G2/M peak (RPE1 cells; siRNA alone): inhibited this shift

ACUUCGCCUGGUCCAACUU (siRNA; RNA, 3' dTdT, backbone not given here) [GCP-5, siRNA directed to GCP5]
inhibition of nocodazole-induced shift from G1 peak to G2/M peak (RPE cells [1]): prevented nocodazole-induced shift

AGGGAACCAAGGAAAGGCA (siRNA; RNA, 3' dTdT, backbone not given here) [NEK, siRNA directed to NEK2]
incorporation of BrDU into chromosomal material (RPE cells [2]): less pronounced
inhibition of nocodazole-induced shift from G1 peak to G2/M peak (RPE cells [1]): did not cause a pronounced inhibition of the shift

CUGGACUUCCAGAAGAACA (siRNA; RNA, 3' dTdT, backbone not given here) [lamin, control siRNA directed to lamin A/C, reference compound]
cells that never divided (RPE cells [3]): ~7%

GAGCAAAAGCAGGAGAUCC (siRNA; RNA, 3' dTdT, backbone not given here) [centrin, siRNA directed to centrin2]
incorporation of BrDU into chromosomal material (RPE cells [2]): clearly inhibited incorporation of BrDU

GCACAGUAAAUACCCACUA (siRNA; RNA, 3' dTdT, backbone not given here) [siCDC14, siRNA directed to CDC14A]
cells displaying lower anti-cdc14A fluorescence intensity than the lowest control (siLamin treated) cell (cdc14A): 68%

GCAGCUGAGCUGAAGGAGA (siRNA; RNA, 3' dTdT, backbone not given here) [pericentrin A/B, siRNA directed to both pericentrin A and pericentrin B]
cells that never divided (RPE cells [3]): 40%

GGUUCUGGAAACAACUGGG (siRNA; RNA, 3' dTdT, backbone not given here) [siδ-tubulin, siRNA directed to δ-tubulin]
centrosomal δ-tubulin staining (δ-tubulin): reduced the number and/or fluorescence intensity of centrosomal staining

GUCCCCCAAACAGAGAAAC (siRNA; RNA, 3' dTdT, backbone not given here) [PCM-1, siRNA directed to PCM1]
inhibition of nocodazole-induced shift from G1 peak to G2/M peak (RPE cells [1]): prevented nocodazole-induced shift

UAUGAGCAUUGAGGCAGAG (siRNA; RNA, 3' dTdT, backbone not given here) [ninein]
inhibition of nocodazole-induced shift from G1 peak to G2/M peak (RPE cells [1]): did not cause a pronounced inhibition of the shift

UCUAUCCGAAAGCCCAGUC (siRNA; RNA, 3' dTdT, backbone not given here) [CNAP, siRNA directed to cNAP1]
incorporation of BrDU into chromosomal material (RPE cells [2]): clearly inhibited incorporation of BrDU
inhibition of nocodazole-induced shift from G1 peak to G2/M peak (RPE cells [1]): prevented nocodazole-induced shift
